Measured values as given in publication PMC9172056 (Journal of medicinal chemistry, 2022).

Tests used:
in vitro = conditions: cat
MERS-CoV 3CL^pro = MERS-CoV 3CL^pro (Middle East respiratory syndrome-related coronavirus, UniProt K9N7C7); test: biochemical
SARS-CoV-2 3CL^pro = SARS-CoV-2 3CL^pro (Severe acute respiratory syndrome coronavirus 2, UniProt P0DTD1); test: biochemical; format: biochemical

Sequence of MERS-CoV 3CL^pro (K9N7C7 3248-3553 limits assumed): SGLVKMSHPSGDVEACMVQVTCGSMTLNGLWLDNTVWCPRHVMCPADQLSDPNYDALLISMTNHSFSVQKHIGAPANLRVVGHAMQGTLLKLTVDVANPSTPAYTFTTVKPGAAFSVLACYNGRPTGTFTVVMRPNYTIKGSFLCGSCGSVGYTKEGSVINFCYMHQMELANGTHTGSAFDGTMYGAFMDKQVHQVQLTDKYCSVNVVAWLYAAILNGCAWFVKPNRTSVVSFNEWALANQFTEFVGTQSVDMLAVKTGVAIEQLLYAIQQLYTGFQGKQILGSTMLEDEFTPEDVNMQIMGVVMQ

For `CC(C)C[C@H](NC(=O)OC1CC2(C1)CN(C(=O)OC(C)(C)C)C2)C(=O)N[C@H](C=O)C[C@H]1CCNC1=O` [Compound 1b, tert-Butyl 6-((((S)-4-methyl-1-oxo-1-(((S)-1-oxo-3-((R)-2-oxopyrrolidin-3-yl)propan-2-yl)amino)pentan-2-yl)carbamoyl)oxy)-2-azaspiro[3.3]heptane-2-carboxylate], which CC50 (in vitro) is on record?
The CC50 was > 100 µM.

What does the source list for `CC(C)C[C@H](NC(=O)OC1CC2(C1)CN(C(=O)OC(C)(C)C)C2)C(=O)N[C@@H](C[C@H]1CCNC1=O)C(O)S(=O)(=O)O` (stereo partly drawn) [Compound 1c, Sodium (2S)-2-((S)-2-((((2-(tert-butoxycarbonyl)-2-azaspiro[3.3]heptan-6-yl)oxy)carbonyl)amino)-4-methylpentanamido)-1-hydroxy-3-((R)-2-oxopyrrolidin-3-yl)propane-1-sulfonate]?
IC50 (MERS-CoV 3CL^pro): 0.28 ± 0.11 µM; CC50 (in vitro): > 100 µM; IC50 (SARS-CoV-2 3CL^pro): 0.85 ± 0.07 µM

Which CC50 (in vitro) does the source give for `CC(C)C[C@H](NC(=O)OC1CC2(C1)CN(C(=O)C(C)C)C2)C(=O)N[C@H](C=O)C[C@H]1CCNC1=O` [Compound 2b, 2-Isobutyryl-2-azaspiro[3.3]heptan-6-yl ((S)-4-methyl-1-oxo-1-(((S)-1-oxo-3-((R)-2-oxopyrrolidin-3-yl)propan-2-yl)amino)pentan-2-yl)carbamate] here?
Its CC50 is > 100 µM.

With `CC(C)C[C@H](NC(=O)OC1CC2(C1)CN(C(=O)C(C)C)C2)C(=O)N[C@@H](C[C@H]1CCNC1=O)C(O)S(=O)(=O)O` (stereo partly drawn) [Compound 2c, Sodium (2S)-1-hydroxy-2-((S)-2-((((2-isobutyryl-2-azaspiro[3.3]heptan-6-yl)oxy)carbonyl)amino)-4-methylpentanamido)-3-((R)-2-oxopyrrolidin-3-yl)propane-1-sulfonate] as the molecule, how does the IC50 (MERS-CoV 3CL^pro) read?
Its IC50 is 0.55 ± 0.07 µM.

What about the CC50 (in vitro) of the same molecule?
Its CC50 is > 100 µM.

And the IC50 (SARS-CoV-2 3CL^pro)?
Its IC50 is 0.65 ± 0.07 µM.

Which results are given for `CC(C)C[C@H](NC(=O)OC1CC2(C1)CN(C(=O)Cc1ccccc1)C2)C(=O)N[C@H](C=O)C[C@H]1CCNC1=O` [Compound 3b, 2-(2-Phenylacetyl)-2-azaspiro[3.3]heptan-6-yl ((S)-4-methyl-1-oxo-1-(((S)-1-oxo-3-((R)-2-oxopyrrolidin-3-yl)propan-2-yl)amino)pentan-2-yl)carbamate]?
CC50 (in vitro): > 100 µM; fold lower IC50 than compound 1b (SARS-CoV-2 3CL^pro): ~13 fold

Which CC50 (in vitro) does the source give for `CC(C)C[C@H](NC(=O)OC1CC2(C1)CN(S(C)(=O)=O)C2)C(=O)N[C@H](C=O)C[C@H]1CCNC1=O` [Compound 4b, 2-(Methylsulfonyl)-2-azaspiro[3.3]heptan-6-yl ((S)-4-methyl-1-oxo-1-(((S)-1-oxo-3-((R)-2-oxopyrrolidin-3-yl)propan-2-yl)amino)pentan-2-yl)carbamate] here?
Its CC50 is > 100 µM.

Which results are given for `CC(C)C[C@H](NC(=O)OC1CC2(CCN(C(=O)OC(C)(C)C)C2)C1)C(=O)N[C@H](C=O)C[C@H]1CCNC1=O` (stereo partly drawn) [Compound 5b, tert-Butyl 2-((((S)-4-methyl-1-oxo-1-(((S)-1-oxo-3-((R)-2-oxopyrrolidin-3-yl)propan-2-yl)amino)pentan-2-yl)carbamoyl)oxy)-6-azaspiro[3.4]octane-6-carboxylate]?
IC50 (MERS-CoV 3CL^pro): 0.7 ± 0.14 µM; CC50 (in vitro): > 100 µM

With `CC(C)C[C@H](NC(=O)OC1CCC2(C1)CN(C(=O)OC(C)(C)C)C2)C(=O)N[C@H](C=O)C[C@H]1CCNC1=O` (stereo partly drawn) [Compound 6b, tert-Butyl 6-((((S)-4-methyl-1-oxo-1-(((S)-1-oxo-3-((R)-2-oxopyrrolidin-3-yl)propan-2-yl)amino)pentan-2-yl)carbamoyl)oxy)-2-azaspiro[3.4]octane-2-carboxylate] as the molecule, how does the CC50 (in vitro) read?
The CC50 was > 100 µM.

Which CC50 (in vitro) does the source give for `CC(C)C[C@H](NC(=O)OC1CC2(CCN(C(=O)C(C)C)CC2)C1)C(=O)N[C@H](C=O)C[C@H]1CCNC1=O` [Compound 8b, 7-Isobutyryl-7-azaspiro[3.5]nonan-2-yl ((S)-4-methyl-1-oxo-1-(((S)-1-oxo-3-((R)-2-oxopyrrolidin-3-yl)propan-2-yl)amino)pentan-2-yl)carbamate] here?
Its CC50 is > 100 µM.

Which CC50 (in vitro) does the source give for `CC(C)C[C@H](NC(=O)OC1CC2(CCN(C(=O)Cc3ccccc3)CC2)C1)C(=O)N[C@H](C=O)C[C@H]1CCNC1=O` [Compound 9b, 7-(2-Phenylacetyl)-7-azaspiro[3.5]nonan-2-yl ((S)-4-methyl-1-oxo-1-(((S)-1-oxo-3-((R)-2-oxopyrrolidin-3-yl)propan-2-yl)amino)pentan-2-yl)carbamate] here?
The CC50 was > 100 µM.

With `CC(C)C[C@H](NC(=O)OC1CC2(CCN(S(C)(=O)=O)CC2)C1)C(=O)N[C@H](C=O)C[C@H]1CCNC1=O` [Compound 10b, 7-(Methylsulfonyl)-7-azaspiro[3.5]nonan-2-yl ((S)-4-methyl-1-oxo-1-(((S)-1-oxo-3-((R)-2-oxopyrrolidin-3-yl)propan-2-yl)amino)pentan-2-yl)carbamate] as the molecule, how does the CC50 (in vitro) read?
Its CC50 is > 100 µM.

For `CC(C)C[C@H](NC(=O)OC1CC2(CCN(C#N)CC2)C1)C(=O)N[C@H](C=O)C[C@H]1CCNC1=O` [Compound 11b, 7-Cyano-7-azaspiro[3.5]nonan-2-yl ((S)-4-methyl-1-oxo-1-(((S)-1-oxo-3-((R)-2-oxopyrrolidin-3-yl)propan-2-yl)amino)pentan-2-yl)carbamate], which CC50 (in vitro) is on record?
The CC50 was > 100 µM.

Which CC50 (in vitro) does the source give for `CC(C)C[C@H](NC(=O)OC1CN(C(=O)OC(C)(C)C)C1)C(=O)N[C@H](C=O)C[C@H]1CCNC1=O` [Compound 12b, tert-Butyl 3-((((S)-4-methyl-1-oxo-1-(((S)-1-oxo-3-((R)-2-oxopyrrolidin-3-yl)propan-2-yl)amino)pentan-2-yl)carbamoyl)oxy)azetidine-1-carboxylate] here?
Its CC50 is > 100 µM.

Which CC50 (in vitro) does the source give for `CC(C)C[C@H](NC(=O)OC1(C)CN(C(=O)OC(C)(C)C)C1)C(=O)N[C@H](C=O)C[C@H]1CCNC1=O` [Compound 13b, tert-Butyl 3-methyl-3-((((S)-4-methyl-1-oxo-1-(((S)-1-oxo-3-((R)-2-oxopyrrolidin-3-yl)propan-2-yl)amino)pentan-2-yl)carbamoyl)oxy)azetidine-1-carboxylate] here?
The CC50 was > 100 µM.

Which CC50 (in vitro) does the source give for `CC(C)C[C@H](NC(=O)OCC1CN(C(=O)Cc2ccccc2)C1)C(=O)N[C@H](C=O)C[C@H]1CCNC1=O` [Compound 15b, (1-(2-Phenylacetyl)azetidin-3-yl)methyl ((S)-4-methyl-1-oxo-1-(((S)-1-oxo-3-((R)-2-oxopyrrolidin-3-yl)propan-2-yl)amino)pentan-2-yl)carbamate] here?
Its CC50 is > 100 µM.

For `CC(C)C[C@H](NC(=O)OCC1CN(C(=O)C2CC3CCC2C3)C1)C(=O)N[C@H](C=O)C[C@H]1CCNC1=O` (stereo partly drawn) [Compound 16b, (1-(Bicyclo[2.2.1]heptane-2-carbonyl)azetidin-3-yl)methyl ((S)-4-methyl-1-oxo-1-(((S)-1-oxo-3-((R)-2-oxopyrrolidin-3-yl)propan-2-yl)amino)pentan-2-yl)carbamate], which CC50 (in vitro) is on record?
Its CC50 is > 100 µM.

For `CC(C)C[C@H](NC(=O)OCC1CN(S(C)(=O)=O)C1)C(=O)N[C@H](C=O)C[C@H]1CCNC1=O` [Compound 17b, (1-(Methylsulfonyl)azetidin-3-yl)methyl ((S)-4-methyl-1-oxo-1-(((S)-1-oxo-3-((R)-2-oxopyrrolidin-3-yl)propan-2-yl)amino)pentan-2-yl)carbamate], which CC50 (in vitro) is on record?
The CC50 was > 100 µM.

With `[2H]C([2H])(OC(=O)N[C@@H](CC(C)C)C(=O)N[C@H](C=O)C[C@H]1CCNC1=O)C1CN(C(=O)OC(C)(C)C)C1` [Compound 18b, tert-Butyl 3-(((((S)-4-methyl-1-oxo-1-(((S)-1-oxo-3-((R)-2-oxopyrrolidin-3-yl)propan-2-yl)amino)pentan-2-yl)carbamoyl)oxy)methyl-d2)azetidine-1-carboxylate] as the molecule, how does the CC50 (in vitro) read?
The CC50 was > 100 µM.
